Test results: patent publication US20110190227A1, “Antagonists of Prostaglandin D2 Receptors” (Amira Pharmaceuticals, Inc., priority 2008, published 2011)

Key:
human DP2 receptor = molecular target: T1, human DP2 receptor (Homo sapiens, UniProt Q9Y5Y4); experiment: DP2/CRTH2 radioligand binding assay ([3H]PGD2); details: membranes of HEK293 cells expressing recombinant human DP2, 1 nM [3H]PGD2; read-out: hDP2
T1 construct: expressed in transfected cells
T1 sequence (Q9Y5Y4 1-395): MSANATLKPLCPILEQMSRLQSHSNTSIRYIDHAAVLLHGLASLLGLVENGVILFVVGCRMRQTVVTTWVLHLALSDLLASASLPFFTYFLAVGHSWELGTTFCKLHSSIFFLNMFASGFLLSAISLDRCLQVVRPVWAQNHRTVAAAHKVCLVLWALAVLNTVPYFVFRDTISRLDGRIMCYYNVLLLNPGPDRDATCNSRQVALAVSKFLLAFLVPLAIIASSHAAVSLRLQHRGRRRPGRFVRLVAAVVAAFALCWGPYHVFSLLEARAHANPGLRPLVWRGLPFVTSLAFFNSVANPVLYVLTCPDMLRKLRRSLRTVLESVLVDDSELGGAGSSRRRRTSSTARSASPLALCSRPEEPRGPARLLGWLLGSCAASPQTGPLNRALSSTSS
Description: The ability of a compound to bind to the human DP2 receptor is assessed via a radioligand binding assay using [^3H]PGD2. HEK293 cells stably expressing recombinant human DP2 are resuspended in 10 mM Hepes, 7.4 containing 1 mM DTT, lysed and centrifuged at 75,000×g to pellet the membranes. The membranes are resuspended in 10 mM Hepes, 7.4 containing 1 mM DTF and 10% glycerol to approximately 5 mg protein/ml. Membranes (2-10 […]) are incubated in 96-well plates with 1 nM [^3H]PGD2 and test compound in Assay Buffer (50 mM Hepes, 10 mM MnCl2, 1 mM EDTA, plus or minus 0.2% human serum albumin, pH 7.4) for 60 minutes at room temperature. The reactions are terminated by rapid filtration through Whatman GF/C glass fibre filter plates. The filter plates were pre-soaked in 0.33% polythylenimine for 30 minutes at room temperature then washed in Wash Buffer (50 mM Hepes, 0.5 M NaCl pH 7.4) prior to harvesting. After harvesting, the filter plates are washed 3 times with 1 ml cold Wash Buffer then dried. Scintillant is then added to the plates and the radioactivity retained on the filters is determined on a Packard TopCount (Perkin Elmer). Specific binding is determined as total radioactive binding minus non-specific binding in the presence of 10 μM PGD2. IC50s were determined using GraphPad prism analysis of drug titration curves.

human DP1 receptor = molecular target: T2, human DP1 receptor (Homo sapiens, UniProt Q13258); experiment: DP1 radioligand membrane binding assay ([3H]BWA868C); details: human platelet membranes, 2 nM [3H]BWA868C; read-out: hDP1
T2 construct: tissue Biological Specialty Corporation; host or cells: human platelets, membrane preparation
T2 sequence (Q13258 1-359): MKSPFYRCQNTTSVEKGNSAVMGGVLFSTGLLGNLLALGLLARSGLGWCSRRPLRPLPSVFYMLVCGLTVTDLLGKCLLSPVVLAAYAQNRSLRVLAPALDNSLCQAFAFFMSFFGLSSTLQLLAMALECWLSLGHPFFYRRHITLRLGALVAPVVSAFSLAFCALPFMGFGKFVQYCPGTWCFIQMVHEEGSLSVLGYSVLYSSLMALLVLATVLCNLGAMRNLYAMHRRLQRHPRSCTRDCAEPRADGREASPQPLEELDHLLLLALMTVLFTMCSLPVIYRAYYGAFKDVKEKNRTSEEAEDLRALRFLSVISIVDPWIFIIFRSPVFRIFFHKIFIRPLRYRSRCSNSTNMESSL
Description: The ability of a compound to bind to the human DP1 receptor was evaluated via a radioligand membrane binding assay using the DP1 selective synthetic ligand [^3H]BWA868C. Packed human platelets (Biological Specialty Corporation), were resuspended in 6 volumes of Hepes/HBSS buffer (10 mM Hepes, 1 mM DTT in Hanks Balanced Salt Solution (HBSS), lysed and centrifuged at 75,000×g to pellet the membranes. Membranes were resuspended in Hepes/HBSS buffer to approximately 12 mg protein/ml. Membranes (20 μg protein/well) are incubated in 96-well plates with 2 nM [^3H]BWA868C and test compound in Assay Buffer (50 mM Hepes, 10 mM MnCl2, 1 mM EDTA, plus or minus 0.2% human serum albumin, pH 7.4) for 60 minutes at room temperature. The reactions are terminated by rapid filtration through Whatman GF/C glass fibre filter plates. The filter plates were pre-soaked in 0.33% polyethylenimine for 30 minutes at room temperature then washed in Wash Buffer (50 mM Hepes, 0.5 M NaCl pH 7.4) prior to harvesting. After harvesting, the filter plates are washed 3 times with 1 ml cold Wash Buffer then dried. Scintillant is then added to the plates and the radioactivity retained on the filters is determined on a Packard TopCount (Perkin Elmer). Specific binding is determined as total radioactive binding minus non-specific binding in the presence of 10 μM BW A868C. IC50s were determined using GraphPad prism analysis of drug titration curves.

Q: Which IC50 (human DP2 receptor) does the source give for COc1ccc(CC(=O)O)cc1Oc1ccc(C(F)(F)F)cc1CS(=O)(=O)C(C)(C)C [Compound 1-6, {4-Methoxy-3-[2-(2-methyl-propane-2-sulfonylmethyl)-4-trifluoromethyl-phenoxy]-phenyl}-acetic acid] here?
A: The IC50 was > 1 µM.

Q: And the IC50 (human DP1 receptor)?
A: The IC50 was > 1 µM.

Q: Which results are given for COc1ccc(CC(=O)O)cc1Oc1ccc(C(F)(F)F)cc1C[S+]([O-])CCc1ccccc1 (centres unmarked) [Compound 1-8, {4-Methoxy-3-[2-(2-phenyl-ethanesulfinylmethyl)-4-trifluoromethyl-phenoxy]-phenyl}-acetic acid]?
A: IC50 (human DP2 receptor): < 0.3 µM; IC50 (human DP1 receptor): > 1 µM

Q: With Cc1nnc(SCc2cc(Br)ccc2Oc2cccc(CC(=O)O)c2)s1 [Compound 1-15, {3-[4-Bromo-2-(5-methyl-[1,3,4]thiadiazol-2-ylsulfanylmethyl)-phenoxy]-phenyl}-acetic acid] as the molecule, how does the IC50 (human DP2 receptor) read?
A: Its IC50 is < 0.3 µM.

Q: And the IC50 (human DP1 receptor)?
A: The IC50 was > 1 µM.

Q: For COc1ccc(CC(=O)O)cc1Oc1ccc(C(F)(F)F)cc1CS(=O)(=O)c1ccccc1 [Compound 1-7, [3-(2-Benzenesulfonylmethyl-4-trifluoromethyl-phenoxy)-4-methoxy-phenyl]-acetic acid], which IC50 (human DP2 receptor) is on record?
A: Its IC50 is 0.3 to 1 µM.

Q: What about the IC50 (human DP1 receptor) of the same molecule?
A: Its IC50 is > 1 µM.

Q: With COc1ccc(CC(=O)O)cc1Oc1ccc(Cl)cc1CS(=O)(=O)Cc1ccccc1 [Compound 1-56, [3-(4-Chloro-2-phenylmethanesulfonylmethyl-phenoxy)-4-methoxy-phenyl]-acetic acid] as the molecule, how does the IC50 (human DP2 receptor) read?
A: The IC50 was < 0.3 µM.

Q: What about the IC50 (human DP1 receptor) of the same molecule?
A: Its IC50 is > 1 µM.

Q: How did the IC50 (human DP2 receptor) turn out when COc1ccc(CC(=O)O)cc1Oc1ccc(C(F)(F)F)cc1CSCC(F)(F)F [Compound 1-2, {4-Methoxy-3-[2-(2,2,2-trifluoro-ethylsulfanylmethyl)-4-trifluoromethyl-phenoxy]-phenyl}-acetic acid] was run?
A: Its IC50 is < 0.3 µM.

Q: What about the IC50 (human DP1 receptor) of the same molecule?
A: Its IC50 is > 1 µM.

Q: How did the IC50 (human DP2 receptor) turn out when O=C(O)Cc1cccc(Oc2ccc(Br)cc2CS(=O)(=O)CCc2ccccc2)c1 [Compound 1-22, {3-[4-Bromo-2-(2-phenyl-ethanesulfonylmethyl)-phenoxy]-phenyl}-acetic acid] was run?
A: Its IC50 is < 0.3 µM.

Q: And the IC50 (human DP1 receptor)?
A: The IC50 was > 1 µM.
